This note sets out measurements from PubChem BioAssay (NCI).

Some test systems named below: 786-0 renal; BT-549 breast; CAKI-1 renal; COLO 205 colon; EKVX NSCLC; HL-60(TB) leukemia; IGROV1 ovarian; KM12 colon; LOX IMVI melanoma; M14 melanoma; MCF7 breast; NCI-H226 lung; NCI/ADR-RES ovarian; OVCAR-8 ovarian; SF-295 CNS; SF-539 CNS; SK-MEL-28 melanoma; UO-31 renal; HS 578T breast.
Common to all, as to assay: NCI tumour cell line growth inhibition, 48 h

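Compound exposure: 48 hours, 5 concentrations, 96-well plates. Definition used: TGI = concentration required for complete inhibition of growth.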

Regarding `Cc1sc(N=Nc2c(O)[nH]c3ccccc23)nc1-c1ccccc1`, the TGI with 786-0 renal stood at 36.6 µM; in the assay with BT-549 breast, 41.5 µM; in the assay with CAKI-1 renal, 32.8 µM; with COLO 205 colon, 46.2 µM; in the assay with EKVX NSCLC, 31.6 µM; in the assay on HL-60(TB) leukemia, 25 µM. Besides, the TGI was 27.1 µM in the assay with IGROV1 ovarian; 43.7 µM in the assay with KM12 colon; 36 µM in the assay with LOX IMVI melanoma; 65.2 µM in the assay with M14 melanoma; 45.1 µM in the assay on MCF7 breast; more than 100 µM with NCI-H226 lung. Further, the TGI was determined as 44.7 µM with NCI/ADR-RES ovarian; 40.2 µM with OVCAR-8 ovarian; 29.1 µM in the assay on SF-295 CNS; 37.5 µM in the assay with SF-539 CNS; 79.8 µM with SK-MEL-28 melanoma; 29.9 µM in the assay with UO-31 renal.

For the compound `COc1ccc(C2=C(OC(C)=O)c3cccn3-c3ccccc3S2)cc1`, the TGI with 786-0 renal was more than 10 µM; with CAKI-1 renal, more than 10 µM; in the assay on COLO 205 colon it was 8.53 µM; in the assay on HL-60(TB) leukemia, 4.57 µM; in the assay with IGROV1 ovarian it was more than 10 µM; with KM12 colon, more than 10 µM. Moreover, the TGI in the assay on LOX IMVI melanoma was more than 10 µM; in the assay on M14 melanoma, more than 10 µM; in the assay with MCF7 breast, more than 10 µM; with OVCAR-8 ovarian, more than 10 µM; in the assay with SF-295 CNS it was 5.03 µM; with SK-MEL-28 melanoma it was more than 10 µM.

In the case of `COC(=O)[C@]1(c2cc3ccccc3n2S(=O)(=O)c2ccccc2)CC2CCC1NC2` (stereo partly specified), the TGI in the assay on 786-0 renal was determined as 27.3 µM; in the assay on BT-549 breast it was 32.9 µM; in the assay with CAKI-1 renal, 29.4 µM; in the assay on COLO 205 colon, 29.7 µM; with EKVX NSCLC, 30.1 µM; with HL-60(TB) leukemia, 16.9 µM. For the same compound, the TGI came out at 33.7 µM in the assay on IGROV1 ovarian; 28.3 µM in the assay with KM12 colon; 36.4 µM in the assay with LOX IMVI melanoma; 27.2 µM in the assay on M14 melanoma; 28 µM in the assay on MCF7 breast; 33.2 µM in the assay with NCI-H226 lung. Also, the TGI with NCI/ADR-RES ovarian was found to be 44.6 µM; with OVCAR-8 ovarian it was 32.3 µM; in the assay on SF-295 CNS, 31.2 µM; in the assay with SF-539 CNS, 32.2 µM; in the assay with SK-MEL-28 melanoma, 32 µM; in the assay on UO-31 renal, 22.3 µM.

For `N#Cc1c(N2CCOCC2)ncn(-c2ccccc2)c1=O`, the TGI with 786-0 renal, with BT-549 breast, in the assay with CAKI-1 renal, in the assay with COLO 205 colon, with EKVX NSCLC and with HL-60(TB) leukemia was more than 100 µM each time. Besides, the TGI in the assay on IGROV1 ovarian, with KM12 colon, with LOX IMVI melanoma, with M14 melanoma, with MCF7 breast and in the assay with NCI-H226 lung was more than 100 µM in each case. Moreover, the TGI with NCI/ADR-RES ovarian, in the assay on OVCAR-8 ovarian, with SF-295 CNS, in the assay with SF-539 CNS, with SK-MEL-28 melanoma and in the assay with UO-31 renal was more than 100 µM throughout.

`CC(C)CCNC(=O)c1ccc(CNC(=O)/C=C/c2ccc(-c3ccccc3[N+](=O)[O-])o2)cc1`: the TGI in the assay on 786-0 renal, in the assay on CAKI-1 renal, in the assay on COLO 205 colon, in the assay with HL-60(TB) leukemia, with KM12 colon and in the assay on LOX IMVI melanoma was more than 100 µM each time. Besides, the TGI with M14 melanoma was more than 100 µM; in the assay on MCF7 breast, more than 100 µM; with NCI-H226 lung, 62.9 µM; in the assay with NCI/ADR-RES ovarian it was more than 100 µM; in the assay on OVCAR-8 ovarian, more than 100 µM; in the assay with SF-295 CNS, more than 100 µM. Also, the TGI in the assay with SK-MEL-28 melanoma and in the assay with UO-31 renal was more than 100 µM each time.

As for `CCNC1CC(C(C)(C)NCC)CC=C1C` (stereo unspecified), the TGI in the assay with 786-0 renal, in the assay with BT-549 breast, in the assay on COLO 205 colon, in the assay with EKVX NSCLC, in the assay with HL-60(TB) leukemia and with IGROV1 ovarian was more than 100 µM in each case. For the same compound, the TGI in the assay with KM12 colon, in the assay with LOX IMVI melanoma, with M14 melanoma, with MCF7 breast, with NCI/ADR-RES ovarian and with OVCAR-8 ovarian was more than 100 µM throughout. Besides, the TGI in the assay on SF-295 CNS, in the assay on SF-539 CNS, in the assay on SK-MEL-28 melanoma and with UO-31 renal was more than 100 µM in each case.

In the case of `COc1cc(CNC(=O)CCCCCCCC/C=C/Br)ccc1O`, the TGI with 786-0 renal, with CAKI-1 renal, with COLO 205 colon, in the assay on EKVX NSCLC, with HL-60(TB) leukemia and in the assay with HS 578T breast was more than 10 µM each time. Moreover, the TGI in the assay with IGROV1 ovarian, in the assay with KM12 colon, in the assay with LOX IMVI melanoma, with M14 melanoma, in the assay on MCF7 breast and in the assay with NCI-H226 lung was more than 10 µM in each case. The TGI with NCI/ADR-RES ovarian, with OVCAR-8 ovarian, with SF-295 CNS, in the assay on SF-539 CNS, in the assay with SK-MEL-28 melanoma and in the assay with UO-31 renal was more than 10 µM each time.

On to `CN1N=C(c2ccncc2)OC1c1ccc(Cl)c(Cl)c1` (stereo unspecified), for which the TGI in the assay with 786-0 renal, in the assay with CAKI-1 renal, with COLO 205 colon, with EKVX NSCLC, in the assay with HL-60(TB) leukemia and in the assay with HS 578T breast was more than 100 µM in each case. Moreover, the TGI in the assay with IGROV1 ovarian, with KM12 colon, with LOX IMVI melanoma, in the assay on M14 melanoma, in the assay on MCF7 breast and in the assay with NCI-H226 lung was more than 100 µM throughout. In addition, the TGI with NCI/ADR-RES ovarian, with OVCAR-8 ovarian, in the assay with SF-295 CNS, with SF-539 CNS, in the assay with SK-MEL-28 melanoma and in the assay on UO-31 renal was more than 100 µM each time.

Regarding `OCCOCCO[P+]1(OCCOCCO)n2c3ccc2C(c2ccccc2)=C2C=CC(=N2)C(c2ccccc2)=c2ccc(n21)=C(c1ccccc1)C1=NC(=C3c2ccccc2)C=C1`, the TGI in the assay on 786-0 renal turned out to be 1.51 µM; in the assay with CAKI-1 renal, 3.79 µM; with COLO 205 colon, 0.0998 µM; with HL-60(TB) leukemia, 0.18 µM; in the assay with HS 578T breast, 0.379 µM; with KM12 colon it was 0.429 µM. For the same compound, the TGI is 0.952 µM in the assay with LOX IMVI melanoma; 1.38 µM in the assay on M14 melanoma; 1.55 µM in the assay on MCF7 breast; more than 67.5 µM with NCI/ADR-RES ovarian; 2.09 µM with OVCAR-8 ovarian; 1.03 µM with SF-295 CNS. This compound also showed a TGI in the assay with SK-MEL-28 melanoma of 0.778 µM.

As for `Cc1c2n(c3ccccc13)CC1C2N(C)OC1(C)C` (stereo unspecified), the TGI in the assay with 786-0 renal, with CAKI-1 renal, with COLO 205 colon, in the assay on EKVX NSCLC, in the assay with KM12 colon and in the assay with M14 melanoma was more than 100 µM each time. The TGI in the assay on NCI-H226 lung, in the assay with OVCAR-8 ovarian, in the assay on SF-295 CNS, in the assay on SF-539 CNS, with SK-MEL-28 melanoma and in the assay on UO-31 renal was more than 100 µM each time.

In the case of `Nc1ncnc2c1ncn2CC(OCP(=O)(O)O)Oc1ccccc1` (stereo unspecified), the TGI with 786-0 renal, with CAKI-1 renal, with COLO 205 colon, in the assay with EKVX NSCLC, in the assay on HS 578T breast and in the assay with KM12 colon was more than 100 µM each time. In addition, the TGI in the assay on LOX IMVI melanoma, with M14 melanoma, with MCF7 breast, with NCI-H226 lung, with NCI/ADR-RES ovarian and in the assay with SF-295 CNS was more than 100 µM each time. Also, the TGI with SF-539 CNS, in the assay with SK-MEL-28 melanoma and with UO-31 renal was more than 100 µM each time.

Turning to `O=[N+]([O-])C(=C1Nc2ccccc2N1)C(Cl)=C(Cl)Cl`, the TGI with 786-0 renal, in the assay with CAKI-1 renal, in the assay with COLO 205 colon, in the assay on EKVX NSCLC, in the assay with HL-60(TB) leukemia and in the assay on HS 578T breast was more than 100 µM each time. Further, the TGI in the assay with IGROV1 ovarian, with KM12 colon, with LOX IMVI melanoma, with M14 melanoma, in the assay with MCF7 breast and in the assay with NCI-H226 lung was more than 100 µM in each case. Besides, the TGI with OVCAR-8 ovarian, in the assay on SF-295 CNS, in the assay with SF-539 CNS, in the assay with SK-MEL-28 melanoma and in the assay with UO-31 renal was more than 100 µM each time.

As to `COc1cc(OC)c(/C=N/N=C(\N)NO)c(OC)c1`, the TGI in the assay on 786-0 renal, in the assay with CAKI-1 renal, in the assay on COLO 205 colon, in the assay with EKVX NSCLC, in the assay with HS 578T breast and in the assay on IGROV1 ovarian was more than 100 µM each time. Also, the TGI is 96.4 µM with KM12 colon; more than 100 µM with LOX IMVI melanoma; more than 100 µM with M14 melanoma; more than 100 µM in the assay on MCF7 breast; more than 100 µM in the assay with NCI-H226 lung; more than 100 µM in the assay with NCI/ADR-RES ovarian. Also, the TGI was more than 100 µM with OVCAR-8 ovarian; more than 100 µM in the assay with SF-295 CNS; more than 100 µM in the assay on SF-539 CNS; more than 100 µM in the assay with SK-MEL-28 melanoma; 81.2 µM with UO-31 renal.
